Laboratory results reported in PMC3486884 (PLoS Pathogens, 2012).
Read-outs that look alike come from different tables or passages of the source.

Columns and labels:
[1] = nitazoxanide; cited from earlier work
v-ATPase = v-ATPase (Bos taurus, UniProt P23956); assay: v-ATPase inhibition assay (Pi production in clathrin-coated vesicles); conditions: bovine brain clathrin-coated vesicles
Experimental: Cow brain CCV were prepared as described [59], diluted in assay buffer (200 mM sucrose, 50 mM KCl, 10 mM HEPES pH7, 1 mM EDTA, 5 µM nigericin, 10 µg/ml oligomycin, 1 mM vanadate) and incubated with the respective compounds at 4°C for 30 min. ATP (10 µl 2 mM ATP and 40 mM MgCl2) were added and the samples incubated at 37°C for 15 min. Production of inorganic phosphate (Pi) was measured with the Sensolyte MG phosphate assay kit according to the manufacturers protocols (AnaSpec).

[2] = system: clathrin-coated vesicles (CCV); assay: Acridine orange measurements in clathrin-coated vesicles; conditions: AO red fluorescence assay
Experimental: CCV suspended in assay buffer (10 mM HEPES, pH7, 100 mM KCl, 1 mM EDTA) were incubated with 1 mM ATP, 2 µM AO (Molecular Probes). The ATPase reaction was initiated by adding MgCl2 to 1 mM and fluorescence was determined at 492/540 nm in a plate reader (Tecan, Männedorf, Switzerland) at room temperature after 10 min. BafA1 and samples without MgCl2 were used as controls.

HRV1A [3] = assay: Full cycle infectivity assay (virus titer, TCID50); type: cell-based, human rhinovirus; conditions: full cycle assays; BafA1 (0.5 nM), alone or drug combination
hepatitis C virus = conditions: cited from earlier work
[4] = system: influenza virus (strain A/Puerto Rico/8/34/H1N1 depicted PR8); assay: microbe, parasite or virus in culture; conditions: unidentified influenza virus, A549, read-out: IC50 (PR8)
CVA21 [5] = assay: microbe, parasite or virus in culture; conditions: Coxsackievirus, CVA21, HeLa, read-out: IC50 (CVA21)
CVB4 [6] = assay: microbe, parasite or virus in culture; conditions: Enterovirus B, CVB4, HeLa, read-out: IC50 (CVB4)
CVB3 = conditions: n=2
HRV2 [7] = assay: microbe, parasite or virus in culture; conditions: Human rhinovirus sp., HRV2, HeLa, read-out: IC50 (HRV2)
HRV1A [8] = assay: microbe, parasite or virus in culture; conditions: Human rhinovirus sp.; for IC50: HeLa, read-out: IC50 (HRV1A); for activity at 0.03 µM / activity at 0.1 µM / activity at 0.31 µM / activity at 0.93 µM / activity at 2.78 µM / activity at 8.33 µM / activity at 25 µM: M-HeLa, 7 h; for activity at 0.03 µM: read-out: HRV1A infection (dsRNA), 0.03 µM; for activity at 0.1 µM: read-out: HRV1A infection (dsRNA), 0.10 µM; for activity at 0.31 µM: read-out: HRV1A infection (dsRNA), 0.31 µM; for activity at 0.93 µM: read-out: HRV1A infection (dsRNA), 0.93 µM; for activity at 2.78 µM: read-out: HRV1A infection (dsRNA), 2.78 µM; for activity at 8.33 µM: read-out: HRV1A infection (dsRNA), 8.33 µM; for activity at 25 µM: read-out: HRV1A infection (dsRNA), 25.00 µM
HRV1A [9] = conditions: n=2
CVB4 [10] = conditions: n=2
CVA21 [11] = conditions: n=2
HRV16 [12] = assay: microbe, parasite or virus in culture; conditions: Human rhinovirus sp., HRV16, HeLa, read-out: IC50 (HRV16)
HRV2 [13] = conditions: n=2
HRV16 [14] = conditions: n=2
HRV14 [15] = conditions: n=2
HRV14 [16] = assay: microbe, parasite or virus in culture; conditions: Human rhinovirus sp., HRV14, HeLa, read-out: IC50 (HRV14)

CC(=O)Oc1ccccc1C(=O)Nc1ncc([N+](=O)[O-])s1 [Nitazoxanide, nitazoxanide]
pKa [1]: 5.8

CO/C1=C\C(C)=C\[C@@H](C)[C@@H](O)[C@@H](C)C/C(C)=C/C=C/[C@H](OC)[C@@H]([C@@H](C)[C@@H](O)[C@H](C)[C@@]2(O)C[C@@H](O)[C@H](C)[C@@H](C(C)C)O2)OC1=O [BafA1, bafilomycin A1]
v-ATPase activity (ATP hydrolysis, production of Pi) (v-ATPase): completely blocked the production of Pi
pH of isolated CCV [2]: neutralized the pH of CCV in a dose-dependent manner
decrease of virus titers (HRV1A [3]): about five-fold

C/C=C/[C@H]1O[C@@](O)([C@@H](C)[C@H](O)[C@H](C)[C@H]2OC(=O)/C(OC)=C/C(C)=C/[C@@H](C)[C@@H](O)[C@@H](CC)[C@@H](O)[C@H](C)C/C(C)=C/C=C/[C@@H]2OC)C[C@@H](O[C@H]2C[C@@H](O)[C@H](OC(N)=O)[C@@H](C)O2)[C@@H]1C [concanamycin A]
v-ATPase activity (ATP hydrolysis, production of Pi) (v-ATPase): completely blocked the production of Pi
pH of isolated CCV [2]: neutralized the pH of CCV in a dose-dependent manner

CCN(CC)CCCC(C)Nc1ccnc2cc(Cl)ccc12 (centres unmarked) [chloroquine]
IC90 (hepatitis C virus): 20 µM

O=C(Nc1ccc([N+](=O)[O-])cc1Cl)c1cc(Cl)cc(Cl)c1O [TVB-1326]
IC50 [4]: 10.2 µM
IC50 (CVA21 [5]): ~25.8 µM
IC50 (CVB4 [6]): 15 µM
relative infection (CVB3; 0.1 µM): 1.05
relative infection (CVB3; 0.3 µM): 1.06
relative infection (CVB3; 0.9 µM): 1.11
relative infection (CVB3; 2.8 µM): 1.06
relative infection (CVB3; 8.3 µM): 1.00
relative infection (CVB3; 25.0 µM): 1.27
IC50 (HRV2 [7]): 3.98 µM
IC50 (HRV1A [8]): 3.36 µM
activity at 0.03 µM (HRV1A [8]): 93%
activity at 0.1 µM (HRV1A [8]): 85%
activity at 0.31 µM (HRV1A [8]): 88%
activity at 0.93 µM (HRV1A [8]): 87%
activity at 2.78 µM (HRV1A [8]): 66%
activity at 8.33 µM (HRV1A [8]): 17%
activity at 25 µM (HRV1A [8]): 4%
relative infection (HRV1A [9]; 0.1 µM): 0.93
relative infection (HRV1A [9]; 0.3 µM): 0.91
relative infection (HRV1A [9]; 0.9 µM): 0.84
relative infection (HRV1A [9]; 2.8 µM): 0.62
relative infection (HRV1A [9]; 8.3 µM): 0.17
relative infection (HRV1A [9]; 25.0 µM): 0.02
relative infection (CVB4 [10]; 0.1 µM): 1.13
relative infection (CVB4 [10]; 0.3 µM): 1.22
relative infection (CVB4 [10]; 0.9 µM): 1.20
relative infection (CVB4 [10]; 2.8 µM): 1.06
relative infection (CVB4 [10]; 8.3 µM): 0.71
relative infection (CVB4 [10]; 25.0 µM): 0.29
relative infection (CVA21 [11]; 0.1 µM): 0.87
relative infection (CVA21 [11]; 0.3 µM): 0.98
relative infection (CVA21 [11]; 0.9 µM): 1.00
relative infection (CVA21 [11]; 2.8 µM): 0.99
relative infection (CVA21 [11]; 8.3 µM): 1.10
relative infection (CVA21 [11]; 25.0 µM): 0.59
IC50 (HRV16 [12]): 11.1 µM
relative infection (HRV2 [13]; 0.1 µM): 1.05
relative infection (HRV2 [13]; 0.3 µM): 0.96
relative infection (HRV2 [13]; 0.9 µM): 0.86
relative infection (HRV2 [13]; 2.8 µM): 0.72
relative infection (HRV2 [13]; 8.3 µM): 0.15
relative infection (HRV2 [13]; 25.0 µM): 0.01
relative infection (HRV16 [14]; 0.1 µM): 0.99
relative infection (HRV16 [14]; 0.3 µM): 1.00
relative infection (HRV16 [14]; 0.9 µM): 0.96
relative infection (HRV16 [14]; 2.8 µM): 0.96
relative infection (HRV16 [14]; 8.3 µM): 0.68
relative infection (HRV16 [14]; 25.0 µM): 0.10
relative infection (HRV14 [15]; 0.1 µM): 0.87
relative infection (HRV14 [15]; 0.3 µM): 0.90
relative infection (HRV14 [15]; 0.9 µM): 0.88
relative infection (HRV14 [15]; 2.8 µM): 0.81
relative infection (HRV14 [15]; 8.3 µM): 0.46
relative infection (HRV14 [15]; 25.0 µM): 0.07
IC50 (HRV14 [16]): 6.87 µM

O=C(Nc1ccc([N+](=O)[O-])cc1Cl)c1ccccc1O [TVB-1332]
IC50 [4]: ~2.7 µM
IC50 (CVA21 [5]): 14.7 µM
IC50 (CVB4 [6]): 8.01 µM
relative infection (CVB3; 0.1 µM): 1.01
relative infection (CVB3; 2.8 µM): 1.08
relative infection (CVB3; CVB3, 0.3 µM, normalized to DMSO control (1), Figure S7A): 1.11
relative infection (CVB3; CVB3, 0.9 µM, normalized to DMSO control (1), Figure S7A): 1.07
relative infection (CVB3; CVB3, 8.3 µM, normalized to DMSO control (1), Figure S7A): 1.05
relative infection (CVB3; CVB3, 25.0 µM, normalized to DMSO control (1), Figure S7A): 1.15
IC50 (HRV2 [7]): 2.36 µM
IC50 (HRV1A [8]): 3.19 µM
activity at 0.03 µM (HRV1A [8]): 108%
activity at 0.1 µM (HRV1A [8]): 98%
activity at 0.31 µM (HRV1A [8]): 96%
activity at 0.93 µM (HRV1A [8]): 88%
activity at 2.78 µM (HRV1A [8]): 44%
activity at 8.33 µM (HRV1A [8]): 5%
activity at 25 µM (HRV1A [8]): 4%
relative infection (HRV1A [9]; 0.1 µM): 0.99
relative infection (HRV1A [9]; 0.3 µM): 1.01
relative infection (HRV1A [9]; 0.9 µM): 0.97
relative infection (HRV1A [9]; 2.8 µM): 0.61
relative infection (HRV1A [9]; 8.3 µM): 0.04
relative infection (HRV1A [9]; 25.0 µM): 0.02
relative infection (CVB4 [10]; CVB4, 0.1 µM, normalized to DMSO control (1), Figure S7A): 1.10
relative infection (CVB4 [10]; CVB4, 0.3 µM, normalized to DMSO control (1), Figure S7A): 1.16
relative infection (CVB4 [10]; CVB4, 0.9 µM, normalized to DMSO control (1), Figure S7A): 1.25
relative infection (CVB4 [10]; CVB4, 2.8 µM, normalized to DMSO control (1), Figure S7A): 0.86
relative infection (CVB4 [10]; CVB4, 8.3 µM, normalized to DMSO control (1), Figure S7A): 0.34
relative infection (CVB4 [10]; CVB4, 25.0 µM, normalized to DMSO control (1), Figure S7A): 0.33
relative infection (CVA21 [11]; CVA21, 0.1 µM, normalized to DMSO control (1), Figure S7A): 0.91
relative infection (CVA21 [11]; CVA21, 0.3 µM, normalized to DMSO control (1), Figure S7A): 0.95
relative infection (CVA21 [11]; CVA21, 0.9 µM, normalized to DMSO control (1), Figure S7A): 0.93
relative infection (CVA21 [11]; CVA21, 2.8 µM, normalized to DMSO control (1), Figure S7A): 1.02
relative infection (CVA21 [11]; CVA21, 8.3 µM, normalized to DMSO control (1), Figure S7A): 0.81
relative infection (CVA21 [11]; CVA21, 25.0 µM, normalized to DMSO control (1), Figure S7A): 0.20
IC50 (HRV16 [12]): 3.74 µM
relative infection (HRV2 [13]; HRV2, 0.1 µM, normalized to DMSO control (1), Figure S7A): 0.94
relative infection (HRV2 [13]; HRV2, 0.3 µM, normalized to DMSO control (1), Figure S7A): 0.97
relative infection (HRV2 [13]; HRV2, 0.9 µM, normalized to DMSO control (1), Figure S7A): 0.95
relative infection (HRV2 [13]; HRV2, 2.8 µM, normalized to DMSO control (1), Figure S7A): 0.38
relative infection (HRV2 [13]; HRV2, 8.3 µM, normalized to DMSO control (1), Figure S7A): 0.01
relative infection (HRV2 [13]; HRV2, 25.0 µM, normalized to DMSO control (1), Figure S7A): 0.01
relative infection (HRV16 [14]; HRV16, 0.1 µM, normalized to DMSO control (1), Figure S7A): 0.98
relative infection (HRV16 [14]; HRV16, 0.3 µM, normalized to DMSO control (1), Figure S7A): 0.95
relative infection (HRV16 [14]; HRV16, 0.9 µM, normalized to DMSO control (1), Figure S7A): 0.94
relative infection (HRV16 [14]; HRV16, 2.8 µM, normalized to DMSO control (1), Figure S7A): 0.66
relative infection (HRV16 [14]; HRV16, 8.3 µM, normalized to DMSO control (1), Figure S7A): 0.14
relative infection (HRV16 [14]; HRV16, 25.0 µM, normalized to DMSO control (1), Figure S7A): 0.07
relative infection (HRV14 [15]; HRV14, 0.1 µM, normalized to DMSO control (1), Figure S7A): 0.91
relative infection (HRV14 [15]; HRV14, 0.3 µM, normalized to DMSO control (1), Figure S7A): 0.96
relative infection (HRV14 [15]; HRV14, 0.9 µM, normalized to DMSO control (1), Figure S7A): 0.82
relative infection (HRV14 [15]; HRV14, 2.8 µM, normalized to DMSO control (1), Figure S7A): 0.47
relative infection (HRV14 [15]; HRV14, 8.3 µM, normalized to DMSO control (1), Figure S7A): 0.09
relative infection (HRV14 [15]; HRV14, 25.0 µM, normalized to DMSO control (1), Figure S7A): 0.05
IC50 (HRV14 [16]): 2.47 µM
